pIC50, pKi: −log10 of the molar value.
Experiments:
[1] = biological target: T1, PI3Kα (Homo sapiens (Human), UniProt P42336); assay: In vitro PI3K AlphaScreen assay; type: biochemical; settings: average if run more than once
Method: In Vitro PI3K AlphaScreen® Assay
The PI3K AlphaScreen® assay (PerkinElmer, Waltham, Mass.) measures the activity of a panel of four phosphoinositide 3-kinases: PI3Kα, PI3Kβ, PI3Kγ, and PI3Kδ. Each of these enzymes phosphorylates the 3′-hydroxyl group on phosphatidylinositiol (4,5)-bisphosphate (PIP2) to produce phosphatidylinositol (3,4,5)-trisphosphate (PIP3). This phosphorylation activity is measured using a GST-tagged PIP3 binding protein (Echelon Biosciences, Salt Lake City, Utah), an anti-GST-tagged Acceptor bead, and streptavidin-Donor bead. […] In the absence of this interaction, proximity of the Donor and Acceptor beads is decreased, producing a loss of luminescent signal which is inversely proportional to PI3K activity.
The enzyme reaction buffer is made using sterile water (Baxter, Deerfield, Ill.) and 50 mM Tris HCl pH 7, 14 mM MgCl2, 2 mM sodium cholate, and 100 mM NaCl. 2 mM DTT is added fresh the day of the experiment. The AlphaScreen® reaction buffer is made using sterile water and 10 mM Tris HCl pH 7.5, 150 mM NaCl, 0.10% Tween 20, and 30 mM EDTA. 1 mM DTT is added fresh the day of the experiment.
The source plates for this assay are 384-well Greiner clear polypropylene plates containing test compounds at 5 mM and diluted 1:2 over 22 points. Columns 23 and 24 contain only DMSO as these are designated for positive and negative controls. Source plates are replicated into 384-well Optiplates (PerkinElmer, Waltham, Mass.), 0.5 μL/well, to make assay-ready plates.
The different PI3K isoforms are each diluted in enzyme reaction buffer to 2× working solutions. […] Two different 2× substrate solutions are made in enzyme reaction buffer. In one solution, PI(4,5)P2 (Echelon Biosciences, Salt Lake City, Utah) is diluted to 10 μM and ATP is diluted to 20 μM. This solution is used in the assays testing PI3Kα and PI3Kβ. In a second solution, PI(4,5)P2 is diluted to 10 μM and ATP is diluted to 8 μM. This solution is used in the assays testing PI3Kγ and PI3Kδ.
The AlphaScreen® reaction solutions are made using beads from the anti-GST AlphaScreen® kit (PerkinElmer, Waltham, Mass.). Two solutions are made in Alphascreen reaction buffer to 4× working concentrations. In one solution, biotinylated-IP4 (Echelon Biosciences, Salt Lake City, Utah) is diluted to 40 nM and streptavadin-Donor Beads are diluted to 80 μg/mL. In the second solution, PIP3-binding protein (Echelon Biosciences, Salt Lake City, Utah) is diluted to 40 nM and anti-GST-Acceptor Beads are diluted to 80 μg/mL. 10 μL/well of enzyme reaction buffer is added to Column 24 of the assay ready plates in place of enzyme. This is done for plates in the PI3Kα, β, and δ assays.
Using a 384-well dispensing Multidrop (Titertek, Huntsville, Ala.), 10 μL/well of 2× enzyme (PI3Kα, β, δ) is added to Columns 1-23 of the appropriate assay ready plates (for PI3Kγ 10 μL is added to Columns 1-24). 10 μL/well of the appropriate substrate solution (the solution with 20 μM ATP for PI3Kα and β assays, and the solution with […] for PI3Kγ and δ assays) is then added to Columns 1-24 of the plates. Plates are then incubated at room temperature for 20 minutes.
In the dark, 10 μL/well of the Donor Bead solution is added to Columns 1-24 of the plates to quench the enzyme reaction. The plates are incubated at room temperature for 30 minutes. Still in the dark, 10 μL/well of the Acceptor Bead solution is also added to Columns 1-24 of the plates. The plates are then incubated in the dark for 1.5 hours. The plates are read on an Envision Multilabel Plate Reader (PerkinElmer, Waltham, Mass.) with a 680 nm excitation filter and a 520-620 nm emission filter.
Activity data for the compounds tested in the assay is provided in Table 1 under the column heading PI3Kα AlphaScreen®.

[2] = biological target: T1, PI3Kα; assay: In vitro PI3 kinase enzyme assay (PI3K ATPLoss); type: biochemical; settings: average if run more than once
Method: Recombinant Expression of PI3K Enzymes
Full length p110 subunits of PI3K α, β and δ, N-terminally labeled with polyHis tag, can be co-expressed with p85 with Baculo virus expression vectors in sf9 insect cells. P110/p85 heterodimers can be purified by sequential Ni-NTA, Q-HP, Superdex-100 chromatography. Purified α, β and δ isozymes can be stored at −20° C. in 20 mM Tris, pH 8, 0.2M NaCl, 50% glycerol, 5 mM DTT, 2 mM Na cholate. […] The γ isozyme can be purified by sequential Ni-NTA, Superdex-200, Q-HP chromatography. The γ isozyme can be stored frozen at −80° C. in NaH2PO4, pH 8, 0.2M NaCl, 1% ethylene glycol, 2 mM β-mercaptoethanol.
In Vitro PI3 Kinase Enzyme Assays (PI3K ATPLoss)
PI3K enzyme assays (alpha, beta, delta and gamma) can be performed in 25 μL with the above final concentrations of components in white polyproplyene plates. Phosphatidyl inositol phosphoacceptor, PtdIns(4,5)P2 (e.g., P4508) can be obtained from Echelon Biosciences, Salt Lake City, Utah. […] Test compounds can be dissolved in DMSO and diluted with three-fold serial dilutions. The compound in DMSO (1 μL) may be added per test well, and the inhibition relative to reactions containing no compound, with and without enzyme can be determined. After assay incubation at RT, the reaction can be stopped and residual ATP can be determined by addition of an equal volume of a commercial ATP bioluminescence kit (Perkin Elmer EasyLite, Perkin Elmer, Waltham, Mass.) according to the manufacturer's instructions, and detected using an Analyst GT luminometer.

[3] = test system: phosphorylation of Akt at Serine 473 in U87 MG cells; assay: pAkt AlphaScreen (U87 cell); type: cell-based; settings: Homo sapiens, U-87 MG, 2 h; pAkt Ser473, U87 MG cells, compound two hours; average if run more than once
Method: pAkt AlphaScreen (U87 Cell)
The pAkt AlphaScreen® assay (PerkinElmer, Waltham, Mass.) determines whether there is phosphorylation of Akt at Serine 473 by recruitment of a phosphospecific antibody. This assay was performed using U87 MG cells. The U87 growth media consists of MEM (Gibco, Carlsbad, Calif.) supplemented with 10% FBS (Gibco), 1× Non-Essential Amino Acids (Gibco) and 1× Penicillin/Streptomycin/Glutamine (Gibco). The cells were maintained weekly using 0.05% Trypsin (Gibco) and replated in 150 mm TC—Treated Culture Dishes (Corning, Corning, N.Y.).
The first day of the assay, the adherent cells were trypsinized, media was added to the loose cells and cells were mixed to a homogenous mixture. 0.5 ml of the homogenous mixture was counted on the Beckman Coulter® Vi-CELL™ XR (Fullerton, Calif.). 50 frames of cells were counted and the number of viable cells was determined. The cells were then diluted to 0.25 million cells per ml, and centrifuged at 200 rcf for 5 minutes. The media was removed and the cells were reconstituted in fresh media for plating. The cells were plated at 20 μl per well on the PerkinElmer® Flexprop PLUS in Low Volume 384 Well White Tissue Culture Plates (Corning) with a final cell density of 5K cells per well. The plates were incubated overnight at 37° Celsius, 5% CO2.
On the second day, the compound plates were prepared, the cells were treated with compound and the pAkt reaction mix was added to the cell lysate. 384 well compound plates were prepared containing 1 μl of compound per well starting at 5 mM and diluted 1:2 across the row, resulting in a 22 well serial dilution. 39 μl of growth media was added to the compound plate in rows 1-22 using the PerkinElmer® Flexprop PLUS resulting in a DMSO concentration of 2.5%. The cell plates and diluted compound plates were put onto the VELOCITY11™ VPREP™ 384 ST where the compound plate was mixed and 5 μl of serially diluted compound or controls was added to the cell plate. The final concentration of the compounds was 25 μM serially diluted to 11.9 pM in 0.5% DMSO. The cell plates were then incubated with compound for two hours at 37° Celsius, 5% CO2. After two hours, the media in the cell plates was aspirated using the BioTek® ELx405HT plate washer (Winooski, Vt.) removing the majority of media and compound without disturbing the adherent U87 cells. The following assay reagents are components of the SureFire® Akt (Ser 473) Phosphorylation 50K Point Kit (TGR BioSciences, Adelaide, Australia) and an IgG Detection Kit (PerkinElmer, Waltham, Mass.). 5 μl of 1× Lysis Buffer was added to each well using the PerkinElmer® Flexprop PLUS. The plates were then incubated at room temperature on a shaker for ten minutes. The AlphaScreen® reaction was prepared under low light conditions (subdued or green light) including p-Akt (Ser 473) Reaction Buffer, Dilution Buffer, Activation Buffer, Acceptor Beads and Donor Beads at a ratio of 40:20:10:1:1 respectively. The AlphaScreen® reaction was added to the cell lysate at 6 μl per well using the PerkinElmer® Flexprop PLUS. The plates were placed in a humid environment to reduce edge effects and incubated overnight at room temperature with restricted air flow in the dark.
On the final day of the experiment, the plates were read on the PerkinElmer® EnVision™ 2103 Multilable Reader using the standard AlphaScreen® readout. The POC is calculated and the data is analyzed to report the IC50 IP for pAkt at Serine 473.
Activity data for the compounds tested in the PI3K cell based Akt assay is provided in Table 1 under the column heading U87

[4] = biological target: mTOR (Homo sapiens (Human), UniProt P42345); assay: In vitro mTOR Lanthascreen assay; type: biochemical; settings: average if run more than once
Text: The Invitrogen (Carlsbad, Calif.) mammalian target of rapamycin (mTOR) Lanthascreen assay can be used to quantitate mTOR kinase activity in an in vitro setting. Active mTOR phosphorylates eukaryotic translation initiation factor 4E binding protein 1 (4E-BP1) on residue threonine 46. This phosphorylation event can be detected with a phospho-specific terbium (Tb) labeled Ab, in turn bringing the Tb label in close proximity to the GFP tagged 4E-BP 1 and allowing for time-resolved fluorescence resonance energy transfer (TR-FRET), which correlates 4E-BP1 phosphorylation levels with mTOR kinase activity.
Enzyme reaction buffer can be prepared in deionized water containing 50 mM HEPES (pH 7.5), 0.01% Polysorbate 20, 1 mM EGTA, and 10 mM MnCl2.
Dilutions of the compound to be tested can be prepared in 96-well polypropylene plates (Fisher Scientific, Waltham, Mass.). One row represents a 10-point dose of compound diluted 1:3 in enzyme reaction buffer and 20% dimethyl sulfoxide (DMSO). The top concentration for all compounds is 36 μM. Wells 6 and 12 can serve as the no compound (DMSO only) and high compound controls.
An mTOR substrate solution can prepared in enzyme reaction buffer containing 1600 nM green fluorescent protein tagged eukaryotic translation initiation factor 4E binding protein 1 (GFP-4E-BP1) (Invitrogen, Carlsbad, Calif.) and 28 uM adenosine triphosphate (ATP) (Calbiochem, Gibbstown, N.J.).
mTOR enzyme (Invitrogen, Carlsbad, Calif.) can be diluted in enzyme reaction buffer to a working concentration of 100 ng/mL.
The enzyme assay can be run in 384 well low volume assay plates (Corning, Corning, N.Y.). 2.5 uL of substrate solution containing GFP-4E-BP1 and ATP can be added to appropriate wells in the assay plate followed by 2.5 μL of compound dilutions. 5 μL of appropriately diluted mTOR enzyme can be added and the reaction allowed to proceed for 1 hour at room temperature. Final reagent concentrations in the enzyme assay are 50 ng/mL mTOR, 400 nM GFP-4E-BP1, and 7 μM ATP.
The enzyme assay can be terminated upon the addition of 10 μL of 20 mM EDTA and 4 nM Tb-labeled anti-phospho-4E-BP1 [T46] antibody (Invitrogen, Carlsbad, Calif.). The assay plate can then be incubated at room temperature for 1 hour and results read on a Tecan Safire II plate reader (Tecan, Männedorf, Switzerland).

T1 sequence (P42336 whole entry): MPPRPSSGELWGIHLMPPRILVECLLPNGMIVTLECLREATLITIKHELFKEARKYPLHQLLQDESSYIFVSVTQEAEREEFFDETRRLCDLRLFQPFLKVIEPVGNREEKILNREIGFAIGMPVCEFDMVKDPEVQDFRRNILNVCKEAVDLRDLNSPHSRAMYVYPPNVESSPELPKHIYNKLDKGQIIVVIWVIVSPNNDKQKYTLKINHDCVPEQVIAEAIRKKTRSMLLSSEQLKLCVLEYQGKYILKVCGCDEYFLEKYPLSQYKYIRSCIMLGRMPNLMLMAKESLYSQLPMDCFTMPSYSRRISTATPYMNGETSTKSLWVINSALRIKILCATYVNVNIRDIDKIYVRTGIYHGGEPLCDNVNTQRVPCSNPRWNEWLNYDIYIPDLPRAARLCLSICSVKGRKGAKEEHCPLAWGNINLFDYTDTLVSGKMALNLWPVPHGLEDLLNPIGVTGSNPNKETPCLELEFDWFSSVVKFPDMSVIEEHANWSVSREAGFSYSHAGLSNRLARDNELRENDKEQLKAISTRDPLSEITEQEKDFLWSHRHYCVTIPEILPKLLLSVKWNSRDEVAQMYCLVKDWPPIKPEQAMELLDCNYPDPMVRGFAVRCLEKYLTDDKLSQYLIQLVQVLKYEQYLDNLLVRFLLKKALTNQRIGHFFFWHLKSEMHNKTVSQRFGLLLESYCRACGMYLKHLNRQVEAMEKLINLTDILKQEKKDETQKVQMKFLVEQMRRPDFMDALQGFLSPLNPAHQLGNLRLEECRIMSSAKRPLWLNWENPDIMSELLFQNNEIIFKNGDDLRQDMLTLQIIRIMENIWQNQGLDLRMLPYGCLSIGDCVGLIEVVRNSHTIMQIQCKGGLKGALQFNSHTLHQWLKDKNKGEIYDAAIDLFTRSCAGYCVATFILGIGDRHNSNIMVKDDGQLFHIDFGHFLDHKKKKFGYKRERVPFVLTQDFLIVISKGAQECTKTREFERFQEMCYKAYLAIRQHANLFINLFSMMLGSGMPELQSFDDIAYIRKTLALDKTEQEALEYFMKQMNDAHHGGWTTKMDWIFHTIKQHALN
T1 sequence (P27986 whole entry partner): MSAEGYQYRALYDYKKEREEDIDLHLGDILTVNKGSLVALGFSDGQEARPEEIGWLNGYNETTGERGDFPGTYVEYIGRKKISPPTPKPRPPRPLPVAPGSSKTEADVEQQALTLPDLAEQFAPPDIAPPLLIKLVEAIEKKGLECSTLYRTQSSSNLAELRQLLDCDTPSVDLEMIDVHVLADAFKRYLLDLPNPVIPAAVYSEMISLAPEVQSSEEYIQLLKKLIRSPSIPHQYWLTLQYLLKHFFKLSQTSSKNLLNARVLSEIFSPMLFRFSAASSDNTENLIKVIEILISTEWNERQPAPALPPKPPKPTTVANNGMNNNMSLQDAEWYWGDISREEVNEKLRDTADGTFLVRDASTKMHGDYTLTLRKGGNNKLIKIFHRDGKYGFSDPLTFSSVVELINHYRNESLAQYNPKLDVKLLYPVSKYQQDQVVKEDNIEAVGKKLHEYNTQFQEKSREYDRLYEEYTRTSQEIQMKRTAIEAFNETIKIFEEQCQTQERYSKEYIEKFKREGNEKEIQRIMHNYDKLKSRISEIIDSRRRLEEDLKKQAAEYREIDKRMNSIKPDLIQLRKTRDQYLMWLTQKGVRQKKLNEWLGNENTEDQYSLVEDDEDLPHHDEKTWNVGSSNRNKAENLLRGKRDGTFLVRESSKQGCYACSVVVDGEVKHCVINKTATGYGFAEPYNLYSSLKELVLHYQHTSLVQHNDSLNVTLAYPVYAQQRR
Chain of mTOR (P42345 1360-2549): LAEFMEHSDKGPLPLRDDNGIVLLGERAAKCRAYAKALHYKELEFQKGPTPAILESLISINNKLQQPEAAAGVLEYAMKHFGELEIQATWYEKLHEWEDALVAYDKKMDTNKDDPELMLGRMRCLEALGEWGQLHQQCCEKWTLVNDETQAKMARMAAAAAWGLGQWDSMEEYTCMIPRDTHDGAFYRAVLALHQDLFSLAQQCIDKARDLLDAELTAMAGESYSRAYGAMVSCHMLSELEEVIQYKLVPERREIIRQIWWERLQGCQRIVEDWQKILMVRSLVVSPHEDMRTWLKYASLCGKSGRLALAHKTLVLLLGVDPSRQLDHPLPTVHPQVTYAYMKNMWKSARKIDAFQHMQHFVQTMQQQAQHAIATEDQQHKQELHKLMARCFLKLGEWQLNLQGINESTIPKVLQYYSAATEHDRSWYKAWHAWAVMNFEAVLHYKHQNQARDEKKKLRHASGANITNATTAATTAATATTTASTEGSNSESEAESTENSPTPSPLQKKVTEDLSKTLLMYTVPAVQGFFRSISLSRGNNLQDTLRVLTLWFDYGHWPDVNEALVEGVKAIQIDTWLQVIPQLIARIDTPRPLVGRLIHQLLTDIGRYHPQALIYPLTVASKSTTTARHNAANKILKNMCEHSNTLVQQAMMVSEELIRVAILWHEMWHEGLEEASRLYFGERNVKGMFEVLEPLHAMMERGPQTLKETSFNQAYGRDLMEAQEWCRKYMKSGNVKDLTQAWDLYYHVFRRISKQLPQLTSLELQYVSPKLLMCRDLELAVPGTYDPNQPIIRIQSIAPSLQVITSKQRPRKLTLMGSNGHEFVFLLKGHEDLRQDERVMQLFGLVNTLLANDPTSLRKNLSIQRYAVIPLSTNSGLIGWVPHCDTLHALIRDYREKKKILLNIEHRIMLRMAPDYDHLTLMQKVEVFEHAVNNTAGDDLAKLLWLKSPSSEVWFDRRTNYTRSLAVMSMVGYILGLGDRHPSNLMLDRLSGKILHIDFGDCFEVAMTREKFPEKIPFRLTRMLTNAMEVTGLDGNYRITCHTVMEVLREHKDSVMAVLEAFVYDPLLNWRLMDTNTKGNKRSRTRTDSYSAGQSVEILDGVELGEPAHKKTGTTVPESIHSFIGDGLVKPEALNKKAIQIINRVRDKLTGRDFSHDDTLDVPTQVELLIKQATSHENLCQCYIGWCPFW

Compound	pKi [1]	pIC50 [2]	pIC50 [3]	pIC50 [4]
O=S(=O)(Nc1cncc(-c2cnc3ccccn23)c1)c1ccc(F)cc1 [Example 2, 4-Fluoro-N-(5-imidazo[1,2-a]pyridin-3-yl-3-pyridinyl)benzenesulfonamide]	5.89	6.03		
COc1cc(-c2cnc3ccc(N4C(=O)OC[C@H]4Cc4ccccc4)cn23)cnc1OC [Example 14, (4R)-4-Benzyl-3-(3-(5,6-dimethoxy-3-pyridinyl)imidazo[1,2-a]pyridin-6-yl)-1,3-oxazolidin-2-one]	6.57		5.16	
COc1cc(-c2cnc3ccc(N4C(=O)OC[C@@H]4Cc4ccccc4)cn23)cnc1OC [Example 15, (4S)-4-Benzyl-3-(3-(5,6-dimethoxy-3-pyridinyl)imidazo[1,2-a]pyridin-6-yl)-1,3-oxazolidin-2-one]	6.54		5.18	
O=c1n(Cc2ccccc2)ccc2ncc(-c3cnc(Cl)c(NS(=O)(=O)c4ccc(F)cc4)c3)n12 [Example 17, N-(5-(6-Benzyl-5-oxo-5,6-dihydroimidazo[1,2-c]pyrimidin-3-yl)-2-chloropyridin-3-yl)-4-fluorobenzenesulfonamide]	6.33			6.74
O=S(=O)(Nc1cc(-c2cnc3ncccn23)cnc1Cl)c1ccc(F)cc1 [Example 24, N-(2-Chloro-5-(imidazo[1,2-a]pyrimidin-3-yl)pyridin-3-yl)-4-fluorobenzenesulfonamide]	6.42	6.11		< 4.30

— patent US8729074B2, “Inhibitors of PI3 kinase” (Amgen Inc., priority 2009, dated 2014)
